# Patent publication US9487508B2, “SGC stimulators” (IRONWOOD PHARMACEUTICALS, INC., priority 2012, dated 2016)
# Target: T1, soluble guanylate cyclase (sGC) (Homo sapiens, UniProt Q02108+Q02153)
# T1 construct: endogenously expressing soluble guanylate cyclase (sGC); endogenous in cells; host or cells: HEK293
# T1 sequence (Q02153 1-619): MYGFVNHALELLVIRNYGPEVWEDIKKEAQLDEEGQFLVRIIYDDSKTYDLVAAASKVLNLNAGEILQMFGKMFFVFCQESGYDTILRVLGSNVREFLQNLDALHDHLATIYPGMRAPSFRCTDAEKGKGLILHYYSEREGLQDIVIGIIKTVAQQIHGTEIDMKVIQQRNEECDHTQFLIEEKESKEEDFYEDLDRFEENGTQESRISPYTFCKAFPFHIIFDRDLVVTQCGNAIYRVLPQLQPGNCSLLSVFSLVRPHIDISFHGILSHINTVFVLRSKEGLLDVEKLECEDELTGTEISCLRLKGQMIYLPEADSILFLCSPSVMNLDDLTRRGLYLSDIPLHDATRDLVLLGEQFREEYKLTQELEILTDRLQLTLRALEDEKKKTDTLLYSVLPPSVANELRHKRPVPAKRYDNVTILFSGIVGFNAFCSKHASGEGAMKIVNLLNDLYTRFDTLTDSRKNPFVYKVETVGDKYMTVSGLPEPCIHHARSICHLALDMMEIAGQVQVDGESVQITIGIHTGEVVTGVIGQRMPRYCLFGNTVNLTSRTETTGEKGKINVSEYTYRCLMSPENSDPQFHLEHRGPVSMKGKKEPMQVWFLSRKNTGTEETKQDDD
# T1 sequence (Q02108 1-690): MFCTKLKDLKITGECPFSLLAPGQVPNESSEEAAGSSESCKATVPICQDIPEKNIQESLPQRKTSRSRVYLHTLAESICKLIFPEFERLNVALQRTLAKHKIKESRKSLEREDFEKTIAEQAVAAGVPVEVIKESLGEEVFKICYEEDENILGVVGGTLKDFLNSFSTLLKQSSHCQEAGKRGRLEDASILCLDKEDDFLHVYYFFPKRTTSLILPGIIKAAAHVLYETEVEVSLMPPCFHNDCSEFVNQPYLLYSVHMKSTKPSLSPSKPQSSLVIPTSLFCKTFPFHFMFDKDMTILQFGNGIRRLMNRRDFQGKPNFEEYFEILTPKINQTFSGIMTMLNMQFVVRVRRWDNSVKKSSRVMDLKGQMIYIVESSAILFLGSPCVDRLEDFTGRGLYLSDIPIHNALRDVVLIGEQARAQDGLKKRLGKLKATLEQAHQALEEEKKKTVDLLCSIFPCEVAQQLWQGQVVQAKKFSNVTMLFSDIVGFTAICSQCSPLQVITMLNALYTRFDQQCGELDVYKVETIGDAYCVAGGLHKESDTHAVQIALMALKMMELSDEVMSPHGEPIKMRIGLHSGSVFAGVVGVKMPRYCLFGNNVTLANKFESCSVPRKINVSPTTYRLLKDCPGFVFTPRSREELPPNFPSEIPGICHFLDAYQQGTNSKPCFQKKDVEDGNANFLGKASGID
# Experiment: sGC-HEK-cGMP assay with SNP incubation (LC/MS read-out)
# Type: cell-based
# Details: 10 μM SNP
# Experimental: (Assay Run with SNP Incubation)
# Human embryonic kidney cells (HEK293), endogenously expressing soluble guanylate cyclase (sGC), were used to evaluate the activity of test compounds. Compounds stimulating the sGC receptor should cause an increase in the intracellular concentration of cGMP. HEK 293 cells were seeded in Dulbecco's Modification of Eagle's Medium supplemented with fetal bovine serum (10% final) and L-glutamine (2 mM final) in a 200 μL volume at a density of 1×10^5 cells/well in a poly-D-lysine coated 96 well flat bottom plate and grown overnight at 37° C. Medium was aspirated and cells were washed with 1× Hank's Buffered Saline Salt Solution (200 μL). Cells were then incubated for 15 minutes at 37° C. with 200 μL of a 0.5 mM 3-isobutyl-1-methylxanthine (IBMX) solution. Test article and sodium nitroprusside solutions (x μM concentration for test article solution and 10 μM concentration for SNP solution; wherein x is one of the following concentrations);
# were then added to the assay mixture (2 μL each) and the resulting mixture incubated at 37° C. for 10 minutes. After the 10 minute incubation, the assay mixture was aspirated and 0.1M HCl (200 μL) was added to the cells. The plate was incubated at 4° C. for 30 minutes in the 0.1M HCl to stop the reaction and lyse the cells. The plates were then centrifuged at 1,200 g for 5 minutes at room temperature. Supernatants were collected and transferred to a new flat bottom 96 well plate for analysis by HPLC-MS. Vehicle controls were carried out using DMSO (1%) solutions. A known sGC stimulator, BAY 41-2272, was used as the positive control. Samples were diluted with an equal volume of 1 M Ammonium Acetate (pH 7) to neutralize samples for better chromatography. A 2×cGMP standard solution was prepared in 0.1 M HCl and then diluted with an equal volume of 1 M Ammonium Acetate, with the following final concentrations in nM: 1024, 512, 256, 128, 64, 32, 16, 8, 4, 2, 1. cGMP concentrations in the test plates were determined from each sample using the LC/MS conditions shown in Table 2 below and the calculated cGMP standard curve. EC50 values were calculated from concentration-response curves generated with GraphPad Prism Software.
# The biological activities of some of the compounds of Formula I or Formula Ib determined with the sGC-HEK assay with SNP incubation are summarized in Tables 3A and 3B.
compound,measurement,setting,value
Nc1ccnc(-n2cc(-c3ncco3)c(Cc3ccccc3F)n2)n1 [Compound I-2],Emax at 10 µM,"10 μM compound, 100% = BAY 41-2272 at 10 μM with 100 μM SNP, read-out: HEK assay (Percent Emax at 10 μM)",80 to 100%
same,Emax at 30 µM,"30 μM compound, 100% = BAY 41-2272 at 10 μM with 100 μM SNP, read-out: HEK assay (Percent Emax at 30 μM)",80 to 100%
same,EC50,"top of curve fitted to 100%, read-out: HEK assay EC50-constrained",1000 to 5000 nM
